From patent US20030083469A1, “Allosteric control of nuclear hormone receptors” (The Salk Institute for Biological Studies, priority 1995, published 2003)

Molecular target: T1, RXR (Homo sapiens, UniProt P19793)
T1 construct: transient transfection analysis of full-length Nurrl and/or RXR; expressed in transfected cells; host or cells: CV-1
T1 sequence (P19793 1-462): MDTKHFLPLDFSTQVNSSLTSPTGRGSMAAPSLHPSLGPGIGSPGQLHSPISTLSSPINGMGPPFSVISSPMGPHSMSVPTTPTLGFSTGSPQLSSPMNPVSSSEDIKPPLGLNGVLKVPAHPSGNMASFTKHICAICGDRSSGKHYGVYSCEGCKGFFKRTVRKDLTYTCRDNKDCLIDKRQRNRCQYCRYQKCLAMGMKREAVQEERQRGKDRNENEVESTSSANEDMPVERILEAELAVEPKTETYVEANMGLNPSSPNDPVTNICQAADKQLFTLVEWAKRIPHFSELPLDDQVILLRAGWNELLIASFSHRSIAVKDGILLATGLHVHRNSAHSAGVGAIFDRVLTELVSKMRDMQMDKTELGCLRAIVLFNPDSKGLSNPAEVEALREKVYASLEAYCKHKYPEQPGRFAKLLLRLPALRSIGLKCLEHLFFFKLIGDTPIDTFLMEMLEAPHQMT
Experiment: Transient transfection of RXR on CRBPII TK-LUC reporter
Format: cell-based
Settings: limiting RXR (20 ng/10^5 cells); LG69
Protocol: CV-1 cells were grown in Dulbecco's Modified Eagle's medium supplemented with 10% resin-charcoal stripped (Samuels et al., Endocrinology 105:80-85 (1979)) fetal bovine serum, 50 U/ml penicillin G and 50 μg/ml streptomycin sulfate (DMEM-FBS) at 37° C. in 5% CO2. One day prior to transfection, cells were plated to 50-80% confluence using phenol-red free DMEM-FBS. Cells were transfected by lipofection using N-{2-(2,3)-dioleoyloxy)propyl-N,N,N-trimethyl ammonium methyl sulfate} according to the manufacturer's instructions (DOTAP, Boehringer Mannheim). […]. All points were performed in triplicate in each experiment and varied by less than 10%. Each experiment was repeated three or more times with similar results.
Using sub-optimal amounts of RXR-expression vector, the CRBPII reporter was compared with a 3-copy NBRE reporter as follows. Cells were transfected as described with respect to FIG. 7B, but with a 5-fold lower amount of CMX-hRXRα (20 ng/10^5 cells). CRBPII TK-LUC (300 ng/10^5 cells) was used where indicated.

CC=C(c1ccc(C(=O)O)cc1)c1cc2c(cc1C)C(C)(C)CCC2(C)C [LG69, 4-{1-(3,5,5,8,8-pentamethyl-5,6,7,8-tetrahydro-2-napthalenyl)-1-propenyl}benzoic acid]
activation of the CRBPII reporter: minimal activation
